Data on 25 compounds can be found in patent US11117900B2 (Vertex Pharmaceuticals Incorporated, priority 2012, dated 2021).

In the assay the test system is HCT116 colorectal cancer cells. Kind of assay: Cisplatin sensitization assay (96 h MTS cell viability).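 Note: compound concentration needed to lower the IC50 of Cisplatin alone by a set fold.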 Type of assay: cell-based. The settings on record: Cisplatin sensitization value. In a few lines:
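The MTS viability read, after 1 h with reagent, followed 96 h of co-treatment at 37° C. in 5% CO2. Both compound and cisplatin were titrated 2-fold from a 10 μM top final concentration in a complete concentration matrix on HCT116 cells. Scores +++/++/+ reflect cisplatin sensitization value ranges.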
Turning to `Nc1nn2cc(F)cnc2c1C(=O)Nc1cncc(F)c1N1CCN(C(=O)CN2CCC2)CC1` [I-N-160, 2-amino-N-(4-(4-(2-(azetidin-1-yl)acetyl)piperazin-1-yl)-5-fluoropyridin-3-yl)-6-fluoropyrazolo[1,5-a]pyrimidine-3-carboxamide], the “Cisplatin Sensitization Assay” value is recorded as “+++ (Compounds with a Cisplatin sensitization value of <0.02 μM are marked with “+++.”)”.

For the compound `CC(C)Oc1ccncc1NC(=O)c1c(N)nn2cc(CC#N)cnc12` [I-O-35, 2-amino-6-(cyanomethyl)-N-(4-isopropoxypyridin-3-yl)pyrazolo[1,5-a]pyrimidine-3-carboxamide], the “Cisplatin Sensitization Assay” value is “+++ (Compounds with a Cisplatin sensitization value of <0.02 μM are marked with “+++.”)”.

Turning to `Cc1cncc(NC(=O)c2c(N)nn3cc(F)cnc23)c1N1CCC(C(=O)N2CCN(C)CC2)CC1` [I-G-55, 2-amino-6-fluoro-N-(5-methyl-4-(4-(4-methylpiperazine-1-carbonyl)piperidin-1-yl)pyridin-3-yl)pyrazolo[1,5-a]pyrimidine-3-carboxamide], the “Cisplatin Sensitization Assay” value is on record as “+++ (Compounds with a Cisplatin sensitization value of <0.02 μM are marked with “+++.”)”.

As for `Nc1nn2cc(F)cnc2c1C(=O)Nc1cncc(F)c1N1CCN(C(=O)CN2CCCC2)CC1` [I-N-187, 2-amino-6-fluoro-N-(5-fluoro-4-(4-(2-(pyrrolidin-1-yl)acetyl)piperazin-1-yl)pyridin-3-yl)pyrazolo[1,5-a]pyrimidine-3-carboxamide], the “Cisplatin Sensitization Assay” value is listed as “+++ (Compounds with a Cisplatin sensitization value of <0.02 μM are marked with “+++.”)”.

In the case of `CN1CCN(c2cc(N)ncc2NC(=O)c2c(N)nn3cc(Cl)cnc23)CC1` [I-N-50, 2-amino-N-(6-amino-4-(4-methylpiperazin-1-yl)pyridin-3-yl)-6-chloropyrazolo[1,5-a]pyrimidine-3-carboxamide], the “Cisplatin Sensitization Assay” value is given as “+ (Compounds with a Cisplatin sensitization value >0.2 μM but <5 μM are marked with “+.”)”.

Take `Nc1nn2cc(F)cnc2c1C(=O)Nc1cnccc1C1CCN(C(=O)C23CCN(CC2)CC3)CC1` [I-C-18, 2-amino-6-fluoro-N-(4-(1-(quinuclidine-4-carbonyl)piperidin-4-yl)pyridin-3-yl)pyrazolo[1,5-a]pyrimidine-3-carboxamide]: the “Cisplatin Sensitization Assay” value was “+ (Compounds with a Cisplatin sensitization value >0.2 μM but <5 μM are marked with “+.”)”.

Turning to `Cc1nc(C(F)(F)F)cn1-c1ccncc1NC(=O)c1c(N)nn2cc(F)cnc12` [I-N-30, 2-amino-6-fluoro-N-(4-(2-methyl-4-(trifluoromethyl)-1H-imidazol-1-yl)pyridin-3-yl)pyrazolo[1,5-a]pyrimidine-3-carboxamide], the “Cisplatin Sensitization Assay” value is “++ (Compounds with a Cisplatin sensitization value >0.02 μM but <0.2 μM are marked with “++.”)”.

On to `CS(=O)(=O)C1CCN(c2ccncc2NC(=O)c2c(N)nn3cc(F)cnc23)CC1` [I-N-190, 2-amino-6-fluoro-N-(4-(4-(methylsulfonyl)piperidin-1-yl)pyridin-3-yl)pyrazolo[1,5-a]pyrimidine-3-carboxamide], for which the “Cisplatin Sensitization Assay” value is listed as “+++ (Compounds with a Cisplatin sensitization value of <0.02 μM are marked with “+++.”)”.

`CC(C)(C#N)c1cnc2c(C(=O)Nc3cnccc3N3CCN(C4COC4)CC3)c(N)nn2c1` [I-N-142, 2-amino-6-(2-cyanopropan-2-yl)-N-(4-(4-(oxetan-3-yl)piperazin-1-yl)pyridin-3-yl)pyrazolo[1,5-a]pyrimidine-3-carboxamide]: the “Cisplatin Sensitization Assay” value is reported as “++ (Compounds with a Cisplatin sensitization value >0.02 μM but <0.2 μM are marked with “++.”)”.

With `CN(C)CCCOc1ccncc1NC(=O)c1c(N)nn2cc(Cl)cnc12` [I-O-52, 2-amino-6-chloro-N-(4-(3-(dimethylamino)propoxy)pyridin-3-yl)pyrazolo[1,5-a]pyrimidine-3-carboxamide], the “Cisplatin Sensitization Assay” value was “+ (Compounds with a Cisplatin sensitization value >0.2 μM but <5 μM are marked with “+.”)”.

As to `COC1(C)CN(C(=O)C2CCN(c3c(F)cncc3NC(=O)c3c(N)nn4cc(F)cnc34)CC2)C1` [I-G-75, 2-amino-6-fluoro-N-(5-fluoro-4-(4-(3-methoxy-3-methylazetidine-1-carbonyl)piperidin-1-yl)pyridin-3-yl)pyrazolo[1,5-a]pyrimidine-3-carboxamide], the “Cisplatin Sensitization Assay” value is listed as “+++ (Compounds with a Cisplatin sensitization value of <0.02 μM are marked with “+++.”)”.

Consider `CN1CCC(Oc2ccncc2NC(=O)c2c(N)nn3cc(CC#N)cnc23)CC1` [I-O-23, 2-amino-6-(cyanomethyl)-N-(4-((1-methylpiperidin-4-yl)oxy)pyridin-3-yl)pyrazolo[1,5-a]pyrimidine-3-carboxamide], for which the “Cisplatin Sensitization Assay” value is given as “+++ (Compounds with a Cisplatin sensitization value of <0.02 μM are marked with “+++.”)”.

With `CS(=O)(=O)C1CCCN(c2ccncc2NC(=O)c2c(N)nn3cc(F)cnc23)C1` (stereo not shown) [I-N-221, 2-amino-6-fluoro-N-(4-(3-(methylsulfonyl)piperidin-1-yl)pyridin-3-yl)pyrazolo[1,5-a]pyrimidine-3-carboxamide], the “Cisplatin Sensitization Assay” value was “++ (Compounds with a Cisplatin sensitization value >0.02 μM but <0.2 μM are marked with “++.”)”.

In the case of `Nc1nn2cc(F)cnc2c1C(=O)Nc1cnccc1-n1cnc(C(F)(F)F)c1` [I-N-27, 2-amino-6-fluoro-N-(4-(4-(trifluoromethyl)-1H-imidazol-1-yl)pyridin-3-yl)pyrazolo[1,5-a]pyrimidine-3-carboxamide], the “Cisplatin Sensitization Assay” value is listed as “++ (Compounds with a Cisplatin sensitization value >0.02 μM but <0.2 μM are marked with “++.”)”.

On to `Nc1nn2cc(F)cnc2c1C(=O)Nc1cncc(F)c1N1CCCCC1` [I-N-270, 2-amino-6-fluoro-N-(5-fluoro-4-(piperidin-1-yl)pyridin-3-yl)pyrazolo[1,5-a]pyrimidine-3-carboxamide], for which the “Cisplatin Sensitization Assay” value is “+++ (Compounds with a Cisplatin sensitization value of <0.02 μM are marked with “+++.”)”.

As for `Nc1nn2cc(Cl)cnc2c1C(=O)Nc1cnccc1Oc1cccnc1` [I-O-70, 2-amino-6-chloro-N-(4-(pyridin-3-yloxy)pyridin-3-yl)pyrazolo[1,5-a]pyrimidine-3-carboxamide], the “Cisplatin Sensitization Assay” value was “+++ (Compounds with a Cisplatin sensitization value of <0.02 μM are marked with “+++.”)”.

`Nc1nn2cc(F)cnc2c1C(=O)Nc1cncc(Cl)c1N1CCC(C(=O)N2CCN3CCC2C3)CC1` (stereo not shown) [I-G-69, N-(4-(4-(1,4-diazabicyclo[3.2.1]octane-4-carbonyl)piperidin-1-yl)-5-chloropyridin-3-yl)-2-amino-6-fluoropyrazolo[1,5-a]pyrimidine-3-carboxamide]: the “Cisplatin Sensitization Assay” value was “+++ (Compounds with a Cisplatin sensitization value of <0.02 μM are marked with “+++.”)”.

Take `Nc1nn2cc(F)cnc2c1C(=O)Nc1cncc(F)c1N1CCN(C(=O)C2CC2)CC1` [I-N-276, 2-amino-N-(4-(4-(cyclopropanecarbonyl)piperazin-1-yl)-5-fluoropyridin-3-yl)-6-fluoropyrazolo[1,5-a]pyrimidine-3-carboxamide]: the “Cisplatin Sensitization Assay” value is recorded as “+++ (Compounds with a Cisplatin sensitization value of <0.02 μM are marked with “+++.”)”.

Turning to `Nc1nn2cc(F)cnc2c1C(=O)Nc1cncc(F)c1N1CCC(C(=O)N2CCN(C3CCC3)CC2)CC1` [I-G-35, 2-amino-N-(4-(4-(4-cyclobutylpiperazine-1-carbonyl)piperidin-1-yl)-5-fluoropyridin-3-yl)-6-fluoropyrazolo[1,5-a]pyrimidine-3-carboxamide], the “Cisplatin Sensitization Assay” value is reported as “+++ (Compounds with a Cisplatin sensitization value of <0.02 μM are marked with “+++.”)”.

For `Nc1nn2cc(F)cnc2c1C(=O)Nc1cncc(F)c1N1CCC(n2ccnc2)CC1` [I-N-288, N-(4-(4-(1H-imidazol-1-yl)piperidin-1-yl)-5-fluoropyridin-3-yl)-2-amino-6-fluoropyrazolo[1,5-a]pyrimidine-3-carboxamide], the “Cisplatin Sensitization Assay” value was “+++ (Compounds with a Cisplatin sensitization value of <0.02 μM are marked with “+++.”)”.

`Nc1nn2cc(F)cnc2c1C(=O)Nc1cnccc1N1CCC(CN2CCC(F)(F)C2)CC1` [I-N-197, 2-amino-N-(4-(4-((3,3-difluoropyrrolidin-1-yl)methyl)piperidin-1-yl)pyridin-3-yl)-6-fluoropyrazolo[1,5-a]pyrimidine-3-carboxamide]: the “Cisplatin Sensitization Assay” value was “+++ (Compounds with a Cisplatin sensitization value of <0.02 μM are marked with “+++.”)”.

Take `COC1CCN(c2ccncc2NC(=O)c2c(N)nn3cc(Cl)cnc23)CC1` [I-N-73, 2-amino-6-chloro-N-(4-(4-methoxypiperidin-1-yl)pyridin-3-yl)pyrazolo[1,5-a]pyrimidine-3-carboxamide]: the “Cisplatin Sensitization Assay” value is given as “+++ (Compounds with a Cisplatin sensitization value of <0.02 μM are marked with “+++.”)”.

Turning to `N#CCc1cnc2c(C(=O)Nc3cnccc3Oc3ccccc3)c(N)nn2c1` [I-O-25, 2-amino-6-(cyanomethyl)-N-(4-phenoxypyridin-3-yl)pyrazolo[1,5-a]pyrimidine-3-carboxamide], the “Cisplatin Sensitization Assay” value is reported as “+++ (Compounds with a Cisplatin sensitization value of <0.02 μM are marked with “+++.”)”.

As for `Nc1nn2cc(F)cnc2c1C(=O)Nc1cncc(Cl)c1N1CCN2CCN(C3COC3)CC2C1` (stereo not shown) [I-N-38, 2-amino-N-(5-chloro-4-(8-(oxetan-3-yl)hexahydro-1H-pyrazino[1,2-a]pyrazin-2(6H)-yl)pyridin-3-yl)-6-fluoropyrazolo[1,5-a]pyrimidine-3-carboxamide], the “Cisplatin Sensitization Assay” value was “++ (Compounds with a Cisplatin sensitization value >0.02 μM but <0.2 μM are marked with “++.”)”.

Regarding `Nc1nn2cc(F)cnc2c1C(=O)Nc1cnccc1N1CCC(S(=O)(=O)N2CCC2)CC1` [I-N-271, 2-amino-N-(4-(4-(azetidin-1-ylsulfonyl)piperidin-1-yl)pyridin-3-yl)-6-fluoropyrazolo[1,5-a]pyrimidine-3-carboxamide], the “Cisplatin Sensitization Assay” value is given as “+++ (Compounds with a Cisplatin sensitization value of <0.02 μM are marked with “+++.”)”.
